Assay results from patent US9168243B2, “Pharmaceutical compositions comprising 8-substituted dibenzylbutyrolactone lignans” (priority 2010, dated 2015).
Entries after “also recorded” stand apart in the source; their conditions may differ.

Columns and labels:
Assay type in all cases: cell-based
[1] = test system: EGF receptor (EGFR); experiment: EGF-induced EGFR tyrosine 1068 phosphorylation, Western blot; conditions: LNCaP; pretreatment with 100 μM NTG; 20 ng/ml EGF, 5 minutes
Procedure: The cells were treated with 0-100 μM lignans or solvent control for indicated times. Human recombinant isoleucin-zipper TRAIL (izTRAIL; kindly provided by Professor Henning Walczak) was used at 0-1 μg/ml with an incubation time of 20 hours. Prior to 10 minutes treatment with 10 nM IGF-1 (Millipore) or 10 nM insulin (Sigma) the cells were serum-starved (1% FCS) overnight. EGFR stimulation was performed on serum-starved cells with 20 ng/ml EGF for 5 minutes (a kind gift from Professor Klaus Elenius laboratory).
Whole cell lysates were prepared by lysing floating and attached cells in Laemmli sample buffer and boiling the samples for 10 minutes. Proteins were separated by SDS-PAGE and transferred on PVDF membrane (Millipore). Western blotting was performed using antibodies against Akt, phospho-Akt (Ser473), GSK-3β, phospho-GSK-3β (Ser9) and phospho-EGF receptor Tyr(1068) (Cell Signalling Technology), Actin (clone AC-40; Sigma-Aldrich), PI3K p85α (clone 4/PI3-Kinase; BD Pharmingen), EGF receptor, Insulin receptor β and IGF-I receptor β (Santa Cruz Biotechnology), and Phospho-tyrosine (clone 4G10; Millipore). HRP-conjugated secondary antibodies were from Southern Biotechnology Associates, Promega, and Amersham Biosciences. The results were visualized using the ECL method (Amersham Biosciences) on x-ray film. […]

[2] = test system: LNCaP cells; experiment: Caspase-3 activation by flow cytometry, TRAIL with or without NTG; conditions: for percentage of cells with activated caspase-3 (maximum): combination of 40 μM NTG and TRAIL, 20 h
Procedure: (§1) Flow cytometric analysis of apoptosis with HTS platform was performed on cells that were plated on a 96-well plate as triplicate samples. After 24 hours in androgen-deprived conditions, the cells were pretreated with 40 μM lignans or lignan derivatives for 1 hour prior to addition of 10 ng/ml izTRAIL. Twenty hours later the plate was centrifuged with a culture plate rotor (1000 rpm, 3 minutes). For analysis of nuclear fragmentation, propidium iodide (PI) buffer (40 mM Na-citrate, 0.3% Triton X-100, 50 μg/ml PI; Sigma) was added to the wells. After 10 minutes incubation at room temperature, the plate was analyzed with LSRII flow cytometer equipped with HTS platform (PE-A channel). The fraction of sub-G0/G1 events (nuclear fragmentation) was gated as a measure of apoptotic cell death. For detection of mitochondrial depolarization, the cells were detached by trypsinization of the cells and incubated in 20 nM tetramethylrhodamine (TMRM; Invitrogen) in warm culture medium for 10 minutes before analysis. The plate was analyzed with LSRII flow cytometer equipped with HTS platform (FSC, PE-A channel). The cells with decreased TMRM incorporation were considered to have undergone mitochondrial membrane depolarization. Activated caspase-3 in cells was labeled with phycerythrin (PE)-conjugated antibody according to manufacturer's protocol (BD Pharmingen) and analyzed by FacsCalibur flow cytometer (FL-2, FSC).
As NTG was identified as the most efficient TRAIL-sensitizing lignan, we analyzed the ability of NTG to affect the efficacy of different TRAIL concentrations in triggering of caspase-3 activation (FIG. 2A). The TRAIL resistant LNCaP cells were cultured in androgen-supplied and androgen-deprived conditions to simulate the effects of androgen-deprivation therapy, and treated for 20 h with TRAIL alone or with the combination of 40 μM NTG and TRAIL. The percentage of cells with activated caspase-3 increased from maximum of 15% to 60% for androgen-deprived, and from 13% to 30% for androgen-supplied cells (Mean±SEM; n≧3) (FIG. 2A).

[3] = test system: LNCaP cells; experiment: Apoptosis after prolonged incubation with NTG alone; conditions: 0-100 μM NTG, 24-72 h
[4] = test system: LNCaP prostate cancer cells; experiment: Flow cytometric screen for sensitization to TRAIL-induced apoptosis (nuclear fragmentation by propidium iodide, mitochondrial depolarization by TMRM)
Procedure: as §1
LNCaP cells were cultured in the absence of 1 nM androgen and incubated with lignan compounds (40 μM) for 1 hour before izTRAIL treatment (10 ng/ml) or control for 20 hours. The samples were screened for nuclear fragmentation by propidium iodide labeling (FIG. 1A) or mitochondrial depolarization by TMRM labeling (FIG. 1B). The plates were analyzed with LSRII flow cytometer equipped with HTS platform (FSC, PE-A channels). The fraction of sub-G0/G1 events (nuclear fragmentation; PE-A channel) was gated as a measure of apoptotic cell death (FIG. 1A) and the cells with decreased TMRM incorporation (PE-A channel) were considered to have undergone mitochondrial membrane depolarization (FIG. 1B). Representative histograms and dot blots for control, TRAIL, nortrachelogenin (NTG) and NTG+TRAIL treatments are viewed.
Importantly, substitution with methyl group at position 8 further increases activity of dibenzylbutyrolactone lignans in sensitization of LNCaP prostate cancer cells to TRAIL-mediated apoptosis (FIG. 8). LNCaP cells were cultured in the absence of 1 nM androgen and incubated with indicated lignan compounds (40 μM) for 1 hour before izTRAIL treatment (10 ng/ml) or control for 20 hours. The cells were disrupted and the nuclei labeled for DNA content with propidium iodide. The samples were analyzed by flow cytometry and the fraction of sub-G0/G1 events (nuclear fragmentation) was detected as a measure of apoptotic cell death (mean±SEM; n=4). (FIG. 8A). Alternatively, LNCaP cells (+/−1 nM androgen) were incubated with 0-100 μM 8-Me-MAT for 1 hour after which total cell lysates were prepared and the samples were analyzed by Western blotting for Akt and phospho-Akt(ser473) expression.

What does the source list for `COc1cc(CC2COC(=O)C2(O)Cc2ccc(O)c(OC)c2)ccc1O` (centres unmarked) [NTG, Nortrachelogenin]?
EGF-induced tyrosine phosphorylation of EGFR [1]: attenuated the EGF-induced tyrosine phosphorylation of EGFR; sensitizing effect when medium change directly precedes TRAIL receptor activation ([2]; 1 hour pretreatment with 40 μM NTG, culture medium replaced before TRAIL, androgen-deprived and androgen-supplied): completely abolished; effect of increasing the NTG dose on sensitization to TRAIL ([2]; NTG 40 μM to 100 μM, 10 ng/ml TRAIL): did not induce further sensitization; percentage of cells with activated caspase-3 (maximum) ([2]; androgen-deprived LNCaP): 60%; percentage of cells with activated caspase-3 (maximum) ([2]; androgen-supplied LNCaP): 30%; induction of apoptosis by NTG alone [3]: did not induce apoptosis; capacity to sensitize LNCaP prostate cancer cells to TRAIL-induced apoptosis ([4]; androgen-deprived, 40 μM lignan 1 hour before 10 ng/ml izTRAIL, 20 hours): highest capacity of the tested lignan compounds; also recorded: most efficient of the 27 tested lignan compounds; also recorded: clearly enhances the activity; increase of the apoptotic response compared to TRAIL alone (factor) ([4]; lignan in combination with TRAIL): 3.2
